# Measured values as given in patent publication US8586613B2, “Pyridinium and quinolinium derivatives” (Universidad de Granada, priority 2004, dated 2013).
# Experiments:
# HT-29 cells = test: HT-29 cell proliferation assay (Crystal Violet); type: cell-based, human; conditions: six days of treatment
# Method: The HT-29 cells were seeded in 24-well plates (35×10^3 cells/well) and were incubated for 24 hours. Then the cells were treated with different concentrations of ChoK inhibitors in the usual culture medium. Three days later, the wells were aspirated and both fresh medium and more amount of drug were added, and the cells were maintained for three more days. The quantification of the remaining cells in each well was carried out by means of the Crystal Violet method [Gillies, R. J., Didier, N., Denton, M. Anal. Biochem. 159, 109-113 (1986)], with some modifications [Hernández-Alcoceba, R., Saniger, L., Campos, J., Núñez, M. C., Khaless, F., Gallo, M. Á., Espinosa, A., Lacal, J. C. Oncogene, 15, 2289-2301 (1997)]. Briefly, the cells were washed with TD buffer and fixed with 1% glutaraldehyde for 15 minutes. After washing again with TD, the cell nuclei were coloured with 0.1% Crystal Violet for at least 30 minutes and washed three times with distilled water. The adsorbed colouring was resuspended in 10% acetic acid and the absorbance at 595 nm was determined in a spectrometer. […] This value determined by iterative curve adjustment. Two values are determined for each point of the curve, the experiment was repeated two or three times and the mean values were estimated. In the few cases in which the two values differed more than 50%, a third experiment was carried out to determine the real value. The IC50 value as a potency measurement is used to relate the biological activity of the compounds with their chemical structure.
# [1] = tested on: MDA.MB.231 (breast cancer cell line) xenograft; test: Antitumor activity in breast xenografts (MDA.MB.231); type: in vivo, Balb/c nude mice
# Method: (§1) Six-week-old Balb/c nude mice (Charles River) were used. The research protocol was approved by the National Biotechnology Centre (CNB) Ethics Committee and animals were maintained in accordance to the Spanish Law guidelines (12 h light/dark cycle, and ad libitum access to food and autoclaved water). Mice were inoculated s.c. in both lower flanks with 1×10^6 of MDA.MB.231 (breast cancer cell line) cells resuspended in 100 μL of serum free DMEN (Invitrogen) media. MDA.MB.231 cells were passed at 80% to 90% confluence every 2 to 3 days in DMEN (Invitrogen) supplemented with 10% fetal bovine serum (FBS, Invitrogen), to ensure exponential growth before using them for the in vivo experiments.
# (§2) Mice developing measurable subcutaneous tumors (˜0.1 cm^3) within 3 to 4 weeks were randomized to either treated or control groups (treated only with the drug vehicle). Tumor growth was monitored by measuring their size two to three times per week. Tumors were measured in two dimensions with digital calipers and tumor volume was estimated using the formula of a rational ellipse (D×d^2)/2, where D is the length of the long diameter and d is the short one. […]
# Body weight of mice was assessed once per week and tumor volumes of the untreated and treated groups were compared and analyzed using the non parametric Mann-Whitney test. […]
# [2] = tested on: H460 (human NSCLC cells) xenograft; test: Antitumor activity in lung xenografts (H460); type: in vivo, Balb/c nude mice
# Method: as §1, with “H460 (human NSCLC cells)” for “MDA.MB.231 (breast cancer cell line)”, “RPMI” for “DMEN”, “H460” for “MDA.MB.231”, “in” for “them for”
# as §2, with “(˜0.15-0.2” for “(˜0.1”, “2” for “3 to 4”
# Body weight of mice was assessed once per week and tumor volumes between the untreated and treated groups were compared and analyzed using the non parametric Mann-Whitney test. […]
# DLD-1 = test: MTT cell viability, panel of cell lines; type: cell-based, human; conditions: DLD-1, Colon, 72 h
# Method: (§3) This effect can be observed in Table 1, where sensitivity to RSM932A of non-transformed MCF-10A epithelial cells is compared to 12 different human-tumor-derived cells from different tissues, including breast, lung, colon and pancreatic tumor cell lines.
# (§4) The experimental conditions were as follows: cells were seeded at 10,000 cells per well into 96-well plates (BD, Falcon, Bioscience, San Jose, Calif., USA). Exponentially growing cells for 24 hours were exposed to different concentrations (quadruplicates for each concentration) of the compound for 72 hours. The colorimetric assay MTT (3-(4,5-dimethylthiazol-2-yl)-2,5-diphenyltetrazolium bromide was used to assess cell viability. The reaction correlates with absorbance read at 595 nm in a VersaMax Microplate Reader (Molecular Devices, Sunnyvale, Calif., USA). The IC50 (50% inhibitory concentration of a substance) is quantified by plotting the log OD (optical density) versus log drug concentration. IC50: Concentration of the compound that causes 50% growth inhibition with respect to control cells without drug.
# H1299 = test: MTT cell viability, panel of cell lines; type: cell-based, human; conditions: H1299, Lung, 72 h
# Method: as §3, §4
# H460 = test: MTT cell viability, panel of cell lines; type: cell-based, human; conditions: H460, Lung, 72 h
# Method: as §3, §4
# H510 = test: MTT cell viability, panel of cell lines; type: cell-based, human; conditions: H510, Lung, 72 h
# Method: as §3, §4
# HCT-116 = test: MTT cell viability, panel of cell lines; type: cell-based, human; conditions: HCT-116, Colon, 72 h
# Method: as §3, §4
# HT-29 = test: MTT cell viability, panel of cell lines; type: cell-based, human; conditions: HT-29, Colon, 72 h
# Method: as §3, §4
# MDA.MB.231 = test: MTT cell viability, panel of cell lines; type: cell-based, human; conditions: MDA.MB.231, Breast, 72 h
# Method: as §3, §4
# MDA.MB.468 = test: MTT cell viability, panel of cell lines; type: cell-based, human; conditions: MDA.MB.468, Breast, 72 h
# Method: as §3, §4
# Mia.PaCa.2 = test: MTT cell viability, panel of cell lines; type: cell-based, human; conditions: Mia.PaCa.2, Pancreas, 72 h
# Method: as §3, §4
# SW620 = test: MTT cell viability, panel of cell lines; type: cell-based, human; conditions: SW620, Colon, 72 h
# Method: as §3, §4
# SkBr-3 = test: MTT cell viability, panel of cell lines; type: cell-based, human; conditions: SkBr-3, Breast, 72 h
# Method: as §3, §4
# T47D = test: MTT cell viability, panel of cell lines; type: cell-based, human; conditions: Breast, 72 h
# Method: as §3, §4
# [3] = tested on: MCF10-A (non-transformed epithelial cells); test: MTT cell viability, panel of cell lines; type: cell-based; conditions: Non-tumorogenic, 72 h
# Method: as §3, §4
# [4] = molecular target: T1, choline kinase from Plasmodium falcifarum (Pf-ChoK) (Plasmodium falciparum, UniProt Q8IM71); test: Sensitivity of Plasmodium falcifarum choline kinase (expressed in E. coli); type: biochemical; conditions: read-out: IC50 (inhibition of Pf-ChoK)
# T1 construct: made in house; host or cells: E. coli
# T1 sequence (Q8IM71 entry or part of it): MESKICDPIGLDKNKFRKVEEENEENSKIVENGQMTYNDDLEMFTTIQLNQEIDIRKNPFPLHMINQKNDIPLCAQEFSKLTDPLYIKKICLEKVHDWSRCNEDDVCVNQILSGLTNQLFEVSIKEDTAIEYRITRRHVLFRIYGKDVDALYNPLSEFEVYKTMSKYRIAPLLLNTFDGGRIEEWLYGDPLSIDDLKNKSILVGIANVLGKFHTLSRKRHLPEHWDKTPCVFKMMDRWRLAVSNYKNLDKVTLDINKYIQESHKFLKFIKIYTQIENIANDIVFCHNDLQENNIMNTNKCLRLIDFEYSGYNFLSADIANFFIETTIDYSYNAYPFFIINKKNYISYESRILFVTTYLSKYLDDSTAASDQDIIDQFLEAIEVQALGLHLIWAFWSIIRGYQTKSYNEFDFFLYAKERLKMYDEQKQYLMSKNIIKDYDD
# Method: The sensitivity of choline kinase of the parasite Plasmodium falcifarum (Pf) was also tested with choline kinase inhibitors. Choline kinase from Pf was expressed in E. coli (FIG. 3) and tested for activity (data not shown). Optimal conditions were established and the IC50 determined.
compound,measurement,setting,value
"CN(c1ccc(Cl)cc1)c1cc[n+](Cc2ccc(-c3ccc(C[n+]4ccc(N(C)c5ccc(Cl)cc5)c5ccccc54)cc3)cc2)c2ccccc12.[Br-].[Br-] [Compound 7, 1,1′-(biphenyl-4,4′-diylmethylene)bis[4-(4-chloro-N-methylanilino)quinolinium]dibromide]",IC50,HT-29 cells,1200 nM
same,Loss Weight,"[1]; MDA.MB.231 xenograft mice, 1st day vs last day of treatment (24 g to 22.2 g)",7.5%
same,percentage of inhibition of tumor growth,"[1]; MDA.MB.231 xenograft, 5 mg/kg i.p., three days per week for three weeks, after 20 days, relative to control mice",54.5%
same,Loss Weight,"[2]; H460 xenograft mice, 1st day vs last day of treatment (23.2 g to 20.8 g)",10.5%
same,percentage of inhibition of tumor growth,"[2]; H460 xenograft, 6 mg/kg i.p., five days in a week plus a boost, after 22 days, relative to control mice",64.5%
same,IC50,DLD-1,2100 nM
same,IC50,H1299,1900 nM
same,IC50,H460,1900 nM
same,IC50,H510,1400 nM
same,IC50,HCT-116,1800 nM
same,IC50,HT-29,1700 nM
same,IC50,MDA.MB.231,1300 nM
same,IC50,MDA.MB.468,2400 nM
same,IC50,Mia.PaCa.2,2300 nM
same,IC50,SW620,2100 nM
same,IC50,SkBr-3,3100 nM
same,IC50,T47D,2250 nM
same,IC50,[3],7100 nM
same,IC50,[4],930 nM
